In patent US11260012B2, “Preserved silk protein fragment compositions and articles manufactured therefrom” (Evolved By Nature, Inc., priority 2015, dated 2022):

What was measured:
[1] = Gel formation with vitamin C derivatives; format: physicochemical; settings: for time to gel formation: 100 mg vitamin C derivative in 15 mL of 2% silk solution
Experimental: The Tables in FIGS. 89A-89B summarize embodiments of gels of the present disclosure. Ascorbic acid-2-glucoside was the most successful vitamin C derivative at gel formation with gel being formed in a 2% silk solution in 3 days. […] In all cases 100 mg of vitamin C derivative was mixed in 15 mL of 2% silk solution, and all gels had the same appearance as gels created with ascorbic acid.
Gels were also cast with combinations of two vitamin C options. In each case, at least one of the vitamin C options was known to cause gelation (L-ascorbic acid or ascorbic acid-2-glucoside). All combination gels were able to gel at 1% total vitamin C additive concentration. […] Without wishing to be bound by theory, it appears there is a relationship between vitamin C concentration, silk concentration, and gelation. An increase in vitamin C at a given concentration of silk will result in a longer time to gelation or inhibit gelation. This may be due to the vitamin C molecule physically blocking interaction between silk protein fragments or cross-linking of silk protein. Modification to pH may allow additional concentrations of vitamin C and derivatives thereof to be added.
Ascorbyl tetraisopalmitate is a highly viscous, oil soluble liquid that might need the help of an emulsifier to possible dissolve in aqueous silk solution.

[2] = test system: C. albicans and A. brasiliensis; test: Challenge testing of preservative effect, antifungal (Method A or Method B); format: cell-based
Experimental: Challenge testing of various compositions of the present disclosure to determine preservative effects was performed using the following methods: (1) Method A or (2) Method B. As used herein, a “count” refers to a typical measurement for measuring microbial (i.e., bacterial and fungal) growth.
Method B: • (1) Bacteria were evaluated and were considered to meet a threshold requirement by the following parameters: (i) […] measured no less than 3 log reduction from the initial calculated count after an incubation period of 14 days (i.e., 2 weeks), and (ii) bacteria measured no increase from an incubation period starting at the 14 day count and lasting until the 28 day count (i.e., 2 week incubation period of a 4 week/1 month experiment). • (2) C. albicans was evaluated and considered to meet a threshold requirement by the following parameters: (i) […] measured no less than a 1 log reduction after a 14 day incubation period, and (ii) C. albicans measured no increase from an incubation period starting at the 14 day count and lasting until the to the 28 day count (i.e., 2 week incubation period of a 4 week/1 month experiment). • (3) A. brasiliensis was evaluated and considered to meet a threshold requirement by the following parameters: A. brasiliensis measured no increase from the initial calculated count after an incubation period of 14 days (i.e., a 2 week incubation) and an incubation period of 28 days (i.e., a 4 week/1 month incubation).
Using Method A described above, if the formulation meets the requirements defined under Method A, the microbiological risk is considered to be tolerable (the cosmetic product is protected against microbial proliferation that may present a potential risk for the user) and the cosmetic product is deemed to meet the requirements of this International Standard without additional rationale.
For example, the pump is considered a protective device for risk reduction, i.e., prevention against bacterial and/or fungal growth.

[3] = HPLC chromatograms of vitamin C degradation, aged silk films vs unstabilized vitamin C; format: physicochemical; settings: after 1 hour at ambient conditions without chemical stabilization
Experimental: FIGS. 36A and 36B show two HPLC chromatograms from samples comprising vitamin C. […] No degradation products were visible. FIG. 59 is a table summarizing the vitamin C concentration in silk protein fragment-films (2% silk films air dried at RT) of the present disclosure. In FIG. 59 processing conditions included 100° C. extraction for 20 min, RT rinse, LiBr in 60° C. oven for 4-6 hours. FIG. 60 is a table summarizing the stability of vitamin C in chemically stabilized solutions. FIGS. 89A-89B are tables summarizing vitamin C stability in SPF gels without chemical stabilizers as compared to chemically stabilized vitamin C in competitive anti-aging skincare products. […] Without wishing to be bound by theory, it appears there is a relationship between vitamin C concentration, silk concentration, and gelation. An increase in vitamin C at a given concentration of silk will result in a longer time to gelation or inhibit gelation. This may be due to the vitamin C molecule physically blocking interaction between silk protein fragments or cross-linking of silk protein.

[4] = in USSSC formulation, concentration of 0.1%

## O=C1O[C@H]([C@@H](O)CO)C(O)=C1O[C@H]1O[C@H](CO)[C@@H](O)[C@H](O)[C@H]1O [Ascorbic acid-2-glucoside, Ascorbic Acid-2-Glucoside]
[1]
  time to gel formation: 3 days

## CCCCCCCCC(CCCCCC)C(=O)OC[C@H](OC(=O)C(CCCCCC)CCCCCCCC)[C@H]1OC(=O)C(OC(=O)C(CCCCCC)CCCCCCCC)=C1OC(=O)C(CCCCCC)CCCCCCCC (stereo partly drawn) [Ascorbyl tetraisopalmitate, Ascorbyl Tetraisopalmitate]
[1]
  ability to dissolve or disperse in aqueous silk solution: unable to dissolve or be dispersed

## COc1ccc(C(=O)[O-])cc1.[Na+] [Sodium anisate]
[2]; in SER formulation, folded in after gelation, 0.5-1.0%, pH of ˜5.2-5.9, with lemongrass or rosehip oil
  antifungal preservative effectiveness: effective antifungal preservative
[2]; in SSC formulation, folded in after gelation, 0.1-1.0% and pH of 4.2-5.9
  antifungal preservative effectiveness: effective antifungal preservative
[2]; in USSSC formulation, folded in after gelation, 0.5-1.0% and pH of 4.2-5.9
  antifungal preservative effectiveness: effective antifungal preservative

## O=C1O[C@H]([C@@H](O)CO)C([O-])=C1OP(=O)([O-])[O-].[Na+].[Na+].[Na+] [Sodium ascorbyl phosphate from Aromantic, Sodium Ascorbyl Phosphate]
[1]
  time to gel formation: failed to create a gel

## O=C1O[C@H]([C@@H](O)CO)C([O-])=C1OP(=O)([O-])[O-].[Na+].[Na+].[Na+] [Sodium ascorbyl phosphate from DSM supplier]
[1]
  time to gel formation: 28 days

## O=C([O-])c1ccccc1.[Na+] [Sodium benzoate]
[2]; in SER formulation, concentration of 0.1% and pH of 3.28
  antifungal preservative effectiveness: effective antifungal preservative
[2]; in SSC formulation, concentration of 0.1% and pH of 3.7 and 4.2
  antifungal preservative effectiveness: effective antifungal preservative
[2]; [4]
  antifungal preservative effectiveness: effective antifungal preservatives

## C/C=C/C=C/C(=O)[O-].[K+] [potassium sorbate]
[2]; [4]
  antifungal preservative effectiveness: effective antifungal preservatives

## O=C1O[C@H]([C@@H](O)CO)C(O)=C1O [vitamin C, L-ascorbic acid]
[3]
  vitamin C degradation products in HPLC chromatogram: degradation products are visible
